Test results taken from patent publication US12358902B2, “5-(2,5-bis(4-chloro-2-isopropylphenyl)thiophen-3-yl)-1H-tetrazole for the topical treatment of bacterial infections” (DENOVAMED INC., priority 2017, dated 2025).

Tested on: MRSA (ATCC #33591)
Assay: rabbit ischemic wound model
Format: in vivo, New Zealand white rabbits
Experimental: 5-(2,5-bis(4-chloro-2-isopropylphenyl)thiophen-3-yl)-1H-tetrazole was tested for its efficacy against infection in the rabbit ischemic wound model, the gold standard animal model mimicking human DUI. In this model, the ear is made ischemic by division of central and rostral nutrient arteries of New Zealand white rabbits. New Zealand White rabbits were employed for this study and their husbandry and experimental manipulation adhered to standard Guides for the Care and Use of Laboratory Animals (2001). An incision was made to the level of bare cartilage at the base of the ear and followed by injection intradermally with epinephrine to obtain vasoconstriction and aid with skin detachment. Skin is separated from the underlying perichondrium and removed with a 6.0 mm aortic biopsy punch. Food and water were given ad libidum and animals were acclimatized for 7 days with photoperiods of alternating 12 h light and dark provided, along with analgesic (BUPRENEX™ (buprenorphine) 0.02 mg/kg sc) and anaesthesia (isoflurane (0.5-5% with oxygen carrier 0.5-2 L/min) during procedures.
An ischemia wound healing model was conducted surgically. Each wound was inoculated with 50 μl of 2×10^7 CFU/ml MRSA (ATCC #33591) and dressed. After one day, wounds were treated with either 50 μl control cream containing vehicle (N=4), 50 μl containing mupirocin (N=4), or 50 μl cream containing 5-(2,5-bis(4-chloro-2-isopropylphenyl)thiophen-3-yl)-1H-tetrazole (N=8) daily. Clinical observations were performed on days 1, 3, 5, 7, 10 and 14. Wounds were assessed and observations recorded using the Draize scoring system. Digital photographs of each wound were obtained and documented.
On day 14 post-wounding, under anesthesia, the animals were euthanized with an intravenous injection of BEUTHANASIA-D™ ([…] and phenytoin sodium) at a dosage of 150 mg/kg of body weight. Specimens including the entire wound, along with approximately 2-3 mm of the normal unwounded skin margins were harvested. Each ear wound specimen was sectioned into halves. For one half of the wound, the wound was placed into a container with 10% neutral buffered formalin and processed for routine histological evaluation. Wound organization was scored for four parameters on a scale of 0-4 at the wound site for inflammation, granulation, angiogenesis, and epithelialization. Wounds were characterized in a blinded manner by a board certified member of the College of American Pathologists. The other half of the wound was weighed (mg) in a sterile Petri dish, then placed in a sterile disposable tissue grinder and homogenized for quantitative microbiology. The tube containing the ground tissue sample was filled with 5 ml 0.85% sterile saline. Five 1:10 serial dilutions were then prepared with 0.5 ml aliquots and 4.5 ml of sterile saline per aliquot. Subsequently, 0.1 ml of the homogenate and each dilution was drop plated on trypticase soy agar and placed in an incubator at 37° C. The number of viable organisms per wound was recorded as cfu/gram of tissue.

[1] = topical daily, day 14, compared to the control

CC(C)c1cc(Cl)ccc1-c1cc(-c2nnn[nH]2)c(-c2ccc(Cl)cc2C(C)C)s1 [Test Article, 5-(2,5-bis(4-chloro-2-isopropylphenyl)thiophen-3-yl)-1H-tetrazole]
percent wound contraction over time (FIG. 1) (topical daily to day 14, p<0.001 vs control, p<0.03 vs mupirocin): better than the mupirocin treated group
effect on erythema and edema (topical daily, Draize scoring): positive effect
CFU drop [1]: 4 log
reduction in bacterial survival [1]: > 99%
wound healing and epithelialization (topical daily, versus mupirocin group): significantly better than the mupirocin group
